Assay results: paper PMC7279002, “Novel 3′-Substituted-1′,2′,4′-Oxadiazole Derivatives of 18βH-Glycyrrhetinic Acid and Their O-Acylated Amidoximes: Synthesis and Evaluation of Antitumor and Anti-Inflammatory Potential In Vitro and In Vivo” (International Journal of Molecular Sciences, 2020)
Entries after “also recorded” stand apart in the source; their conditions may differ.

Key:
[1] = system: HeLa cells; assay: Cell motility by xCelligence (CIM-plate); assay type: cell-based, human; conditions: 0.5 µM, 48 h, nontoxic concentration
Procedure: HeLa cells were seeded in tetraplicate at 2 × 10^4 cells per well in the upper chamber of CIM-plates, in the presence or absence of 5f at 0.5 µM. To stimulate cell migration, the lower chamber of the CIM-plate contained 10% FBS as chemoattractant. The cell index (electrical impedance) was monitored by the Real-Time Cell Analyzer Dual Plates (RTCA DP) xCelligence System (ACEA Biosciences, San Diego, CA, USA) every 1 h for 48 h.

[2] = system: HeLa cells; assay: Mitochondrial membrane potential (JC-1, flow cytometry); assay type: cell-based, human; conditions: 48 h, JC-1, HeLa
Procedure: HeLa cells were cultured in 24-well plates for 24 h under standard conditions and treated by 5f at 7 or 10 µM for a subsequent 48 h. After the treatment, the cells were collected and resuspended at 10^6 cells/mL in PBS-contained JC-1 (5 µg/mL). After 30 min of incubation under standard conditions, the cells were centrifuged, washed with PBS, and analyzed using the NovoCyte Flow Cytometer (ACEA Biosciences Inc., San Diego, CA, USA). In total, 10,000 events were acquired for each sample.

[3] = Toxicity assessment in B16 melanoma-bearing mice; assay type: in vivo; conditions: five injections, 50 mg/kg i.p.
Procedure: To generate a metastatic model of tumor progression, 10^5 B16 melanoma cells suspended in 0.2 mL of saline buffer were inoculated into the lateral tail vein of C57Bl/6 mice. On day 4 after tumor transplantation, mice were divided into three groups (n = 9 per group): (1) mice without treatment (control); (2) mice who received intraperitoneal (i.p.) injections of 10% Tween-80 (vehicle); and (3) mice who received i.p. injections of 5f in 10% Tween-80 at a dose of 50 mg/kg. The treatment was carried out three times a week. The total number of injections was five. Mice were sacrificed on day 14 after B16 melanoma transplantation and the lungs were collected for calculation of surface metastases.
During the experiment, general status of the animals and body weight were monitored. At the end of the experiment, organs were collected and organ indexes were calculated as (organ weight / body weight) × 100%.

[4] = system: human cervical carcinoma HeLa; assay: MTT cytotoxicity assay, 48 h; assay type: cell-based
Procedure, shortened: (§1)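 Cells were seeded at 10^4 per well, grown 24 h, then exposed to derivatives (0.5–50 µM, DMSO vehicle) for 48 h at 37 °C, 5% CO2 in DMEM/10% FBS. Viability was read by MTT (0.5 mg/mL final, 2 h; A570/620). IC50 was the concentration reducing A570 to 50% of control, from dose–response curves.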

[5] = system: murine melanoma B16; assay: MTT cytotoxicity assay, 48 h; assay type: cell-based
Procedure, shortened: as §1

[6] = system: nontransformed human fibroblasts hFF3; assay: MTT cytotoxicity assay, 48 h; assay type: cell-based; conditions: Homo sapiens, HFF-3, read-out: IC50, µM Fibroblast hFF3
Procedure, shortened: as §1

[7] = system: human duodenal carcinoma HuTu-80; assay: MTT cytotoxicity assay, 48 h; assay type: cell-based
Procedure, shortened: as §1

[8] = system: human lung adenocarcinoma A549; assay: MTT cytotoxicity assay, 48 h; assay type: cell-based; conditions: Homo sapiens, A549; MTT, 48 h
Procedure, shortened: as §1

[9] = system: HeLa cells; assay: Colony-forming assay; assay type: cell-based, human; conditions: 14 days
Procedure: HeLa cells were seeded in 96-well plates in tetraplicates at a density of 100 cells/well and treated by 5f (0.25, 0.5 µM) for 14 days under standard conditions. Then cell colonies were fixed with 4% paraformaldehyde, stained with crystal violet dye (0.1% w/v), and photographed using a Vilber Lourmat transilluminator (Marne La Vallee, France). The percentage of area covered by cell colonies was calculated using a ColonyArea ImageJ plugin [91].

## CC1(C)C2CC[C@]3(C)C(C(=O)C=C4[C@@H]5C[C@@](C)(c6nc(-c7ccccn7)no6)CC[C@]5(C)CC[C@]43C)[C@@]2(C)CC[C@@H]1O (stereo partly drawn) [Compound 5f, 30-nor-3β-hydroxy-11-oxo-20-(3′-(pyridin-2′′-yl)-1′,2′,4′-oxadiazol-5′-yl)-18βH-olean-12-en]
[1]
  effect on motility of HeLa cells: statistically significant suppressed the motility of HeLa cells
[2]; 7 µM
  cells with collapsed membrane potential (gate P3): 72.5%
[2]; 10 µM
  cells with collapsed membrane potential (gate P3): 85.2%
[3]
  survival during the experiment: all 5f-treated mice were alive
[3]; 50 mg/kg
  toxic effects in mice (organ indexes): did not cause toxic and unspecific immunomodulatory effects; also recorded: without systemic toxicity
[4]; Homo sapiens, HeLa, MTT, 48 h, read-out: IC50, µM Cervix HeLa
  IC50: 3.6 ± 0.5 µM
[4]; IC50 in hFF3 / IC50 in HeLa
  Selectivity index: HeLa: > 13.9
[5]; IC50 in hFF3 / IC50 in B16
  Selectivity index: B16: > 5.3
[5]; Mus musculus, MTT, 48 h
  IC50: 9.4 ± 0.4 µM
[6]
  IC50: > 50 µM
[7]; Homo sapiens, HuTu80, MTT, 48 h, read-out: IC50, µM Duodenum HuTu-80
  IC50: 3.8 ± 0.3 µM
[7]; IC50 in hFF3 / IC50 in HuTu-80
  Selectivity index: HuTu-80: > 13.2
[8]
  IC50: > 50 µM
[9]; 0.5 µM
  suppression of colony formation compared to the control: three-fold
[9]; lower concentration (0.25 µM)
  effect on clonogenic characteristics: had no effect on the clonogenic characteristics of HeLa cells
